From patent US8546421B1, “Oncogenic-RAS-signal dependent lethal compounds” (The Trustees of Columbia University in the City of New York, priority 2007, dated 2013)
Where “and” joins values, the source holds several entries; their conditions need not be identical. Identical values can stand only once. Counter-ions that a name gives are not always drawn.

Assays:
[1] = system: Calu-1 cells expressing shRNAs targeting HRAS, NRAS or KRAS; assay: Drug sensitivity after shRNA knockdown of RAS; type: cell-based, human; conditions: alamar blue
Method: On day one, 3×10^5 Calu-1 cells or 2×10^5 HT1080 cells were seeded in 10-cm dishes; on day 2, frozen virus stock was thawed at 37° C., hexadimethrine bromide (polybrene) (Sigma, cat.#H9268) was added to the virus solution at a final concentration of 8 μg/mL and growth media from cell culture was replaced with the virus/polybrene mixture. The culture was returned to the tissue culture incubator for 2 hours, with rocking of the dishes every 30 min in order to prevent drying. After 2 h, 10 mL growth medium was added, the culture was incubated for 2 days, and cells stably expressing shRNA were selected by adding puromycin (Sigma, cat.#P9620) at a final concentration of 1.5 μg/mL.
On the day of experiment, assay plates were prepared by seeding 3,000 HT1080, HT1080-pLKO, HT1080-TfR1 KD, Calu-1, Calu-1-pLKO, or Calu-1-509 cells per well in 36 μL of growth media to black, clear bottom 384-well plates. Also, assay plates were prepared by seeding 1,500 shRNA infected HT1080 or Calu-1 cells per well. Cells in assay plates were treated with each lethal compound in a 2-fold dilution series by transferring 4 μL solution from a 10× lethal plate of Erastin, Compound 3, Compound 27, or Compound 36. […] Percent growth inhibition (% GI) was calculated using fluorescence intensity values.

[2] = system: PARP-1 cleavage in BJ-TERT/LT/ST/RAS^V12 cells; assay: Western blot of PARP-1 cleavage upon compound treatment; type: cell-based, human; conditions: Western blot with anti-PARP-1 antibody
Method: 2×10^6 BJ-TERT/LT/ST/RAS^V12 cells were seeded in 10 cm dishes and treated with 1 μM staurosporine, 10 μg/mL erastin, 20 μg/mL Compound 3, and 1 μg/mL Compound 27 for 16 h. Both dying cells and live cells in each 10 cm dish were harvested and collected in the same 15 mL tubes by centrifuging cell suspension at 1,000 rpm for 5 min. Cell pellets were washed three times with PBS and cells were lysed in 200 μL of denaturing lysis buffer (50 mM HEPES KOH [pH 7.4], 40 mM NaCl, 2 mM EDTA, 1.5 mM Na3VO4, 50 mM NaF, 10 mM sodium pyrophosphate, 10 mM sodium β-glycerophosphate, 0.5% Triton X-100, and protease inhibitor tablet [Roche, cat.#11836170001]). Protein content was quantified using a Bio-Rad protein assay reagent (Bio-Rad, cat.#500-00006). Equal amounts of protein were resolved on SDS-polyacrylamide gels. The electrophoresed proteins were transblotted onto a PVDF membrane, blocked with 5% milk, and incubated with rabbit primary antibodies specific to: PARP (Santa Cruz, cat.#sc-7150), cleaved caspase-3 (Cell Signaling Technology, cat.#9661) overnight at 4° C. The membrane was then incubated in IRDye 800 goat anti-rabbit antibody (Li-cor Bioscience cat.#926-32211) at 1:3,000 dilutions for 45 min at room temperature. After washing off the unbound antibodies, membranes were scanned using the Odyssey™ Imaging System (Li-cor Bioscience).

[3] = system: BJeH, BJeHLT, BJeLR and DRD cells; assay: Cell growth inhibition by stereoisomers of Compound 27; conditions: for cell growth inhibition (in words): BJeH, BJeHLT, BJeLR, DRD cells
[4] = system: cellular iron in BJ-TERT/LT/ST/RAS^V12 cells; assay: Cellular iron level by flow cytometry with Phen Green SK; type: cell-based, human; conditions: 24 hours treatment
Method: Cells were seeded in 6-well plates (200,000 cells per well) in BJ medium. The next day, the cell monolayer was washed with phosphate buffered saline (“PBS”) twice and stained with 5 μM of Phen Green SK, diacetate (Molecular Probe, cat.#P14313) in PBS by incubating the plate for 15 minutes in a culture incubator. Cells were released with trypsin/EDTA, harvested in 2 mL PBS, and centrifuged at 1,000 rpm for 5 min. The cell pellet was re-suspended in 1 mL of PBS, the cell suspension was transferred to disposable FACS tubes, and the fluorescence profile of the sample was monitored using a FACSCalibur system (BD Biosciences).

[5] = system: BJ cell system (BJ-TERT, BJ-TERT/LT/ST, BJ-TERT/LT/ST/RAS^V12, DRD cells); assay: Alamar blue potency and selectivity in the engineered BJ cell system; conditions: for growth inhibitory activity and selectivity in the BJ cell system (in words): alamar blue, structural analogs and hits; for activity of analogs of Compound 27, percent growth inhibition (in words): cell viability assay, SAR of Compound 27
TC71 = assay: Alamar Blue assay, additional cell lines; type: cell-based
Text: (§1) The results of this additional testing are summarized in Tables 7-10 (no additional cell lines were identified as sensitive for Compound 3). […] The tumor type, cell line, maximum percentage inhibition, the concentration of compound required to inhibit cell growth by 50%, and RAS mutation (if any) are also summarized.

SK-UT = assay: Alamar Blue assay, additional cell lines; type: cell-based; conditions: Uterine, mixed mesodermal tumor
Text: as §1

U-2 OS = assay: Alamar Blue assay, additional cell lines; type: cell-based; conditions: Osteosarcoma
Text: as §1

MES-CA = assay: Alamar Blue assay, additional cell lines; type: cell-based; conditions: Uterine sarcoma
Text: as §1

SK-ES-1 = assay: Alamar Blue assay, additional cell lines; type: cell-based; conditions: anaplastic osteosarcoma
Text: as §1

SK-LMS-1 = assay: Alamar Blue assay, additional cell lines; type: cell-based; conditions: Leimyosarcoma, vulva
Text: as §1

HeLa = assay: Alamar Blue assay, additional cell lines; type: cell-based; conditions: Cervical carcinoma
Text: as §1

U973 = assay: Alamar Blue assay, additional cell lines; type: cell-based
Text: as §1

TC32 = assay: Alamar Blue assay, additional cell lines; type: cell-based
Text: as §1

ACHN = assay: NCI60 anti-cancer screening
Calu-1 = assay: Alamar Blue assay, additional cell lines; type: cell-based, human; conditions: Calu-1, Non-small cell lung carcinoma, Alamar Blue
Text: as §1

HT1080 = assay: Alamar Blue assay, additional cell lines; type: cell-based, human
Text: as §1

[6] = system: BJELR (Foreskin fibroblasts w/ TERT, LT, ST, RAS); assay: Alamar Blue assay, additional cell lines; type: cell-based, human
Text: as §1

K-562 = assay: NCI60 anti-cancer screening
UO-31 = assay: NCI60 anti-cancer screening
HL-60(TB) [7] = conditions: Leukemia
HL-60(TB) [8] = assay: cells; conditions: Homo sapiens
CAKI-1 = assay: NCI60 anti-cancer screening; conditions: Homo sapiens
786-0 = assay: NCI60 anti-cancer screening
RXF393 = assay: NCI60 anti-cancer screening

CN[C@@H]1C[C@H]2O[C@@](C)([C@@H]1OC)n1c3ccccc3c3c4c(c5c6ccccc6n2c5c31)C(=O)NC4 [staurosporine, reference compound]
sensitivity of Calu-1 cells after RAS shRNA compared with parental cells [1]: loss of sensitivity to staurosporine was not observed
PARP-1 cleavage / type of cell death [2]: showed PARP-1 cleavage

COC(=O)c1ccc([C@@H]2c3[nH]c4ccccc4c3C[C@H](C(=O)OC)N2C(=O)CCl)cc1 [1R,3R Compound 27]
cell growth inhibition (in words) [3]: no appreciable growth inhibition

COC(=O)c1ccc([C@H]2c3[nH]c4ccccc4c3C[C@@H](C(=O)OC)N2C(=O)CCl)cc1 [(1S,3S) Compound 27]
cell growth inhibition (in words) [3]: no appreciable growth inhibition

O=C(NN=Cc1c(O)ccc2ccccc12)c1ccncc1 [Compound 311]
change of cellular iron level (PGSK fluorescence) [4]: induced a peak shift in the fluorescence profile

COC(=O)C1Cc2c([nH]c3ccccc23)C(C)(C)N1C(=O)CCl (stereo not shown) [Compound 28]
growth inhibitory activity and selectivity in the BJ cell system (in words) [5]: virtually the same activity and selectivity

CC(=O)N(O)CCCCCNC(=O)CCC(=O)N(O)CCCCCNC(=O)CCC(=O)N(O)CCCCCN [DFOM, deferoxamine mesylate]
change of cellular iron level (PGSK fluorescence) [4]: induced a peak shift in the fluorescence profile

COC(=O)C1=C(C)NC2=C(C(=O)CC(c3ccc(Cl)cc3)C2)C1c1ccccc1F (stereo not shown) [Compound 5]
growth inhibitory activity and selectivity in the BJ cell system (in words) [5]: varied potency and selectivity

C=CC(=O)N1C(C(=O)OC)Cc2c([nH]c3ccccc23)C1c1ccc(C(=O)OC)cc1 (stereo not shown) [acryl analog]
activity of analogs of Compound 27, percent growth inhibition (in words) [5]: insufficiently active

COC(=O)c1ccc([C@H]2c3[nH]c4ccccc4c3C[C@H](C(=O)OC)N2C(=O)CCl)cc1 [1S,3R Compound 27]
cell growth inhibition (in words) [3]: strong cell growth inhibition in two cell lines
EC50 ([3]; Homo sapiens): ~0.005 µg/mL and ~10 nM
selective lethality (in words) ([3]; mutant HRAS BJ tumor cell lines versus isogenic cell lines lacking oncogenic HRAS): selective lethality towards BJ tumor cell lines containing mutant HRAS

COC(=O)C1Cc2c([nH]c3ccccc23)C(c2ccc(NC(=O)CCCCCNC(=O)CCCCC3SCC4NC(=O)NC43)cc2)N1C(=O)CCl (stereo not shown) [biotinylated analog of Compound 27]
activity of analogs of Compound 27, percent growth inhibition (in words) [5]: not sufficiently active

CCOc1ccccc1-n1c(C(C)N2CCN(C(=O)COc3ccc(Cl)cc3)CC2)nc2ccccc2c1=O (stereo not shown) [Erastin, reference compound]
Maximum Inhibition % (TC71; Ewing sarcoma): 92%
GI50 (TC71; TC-71, Ewing sarcoma): 10 µM
GI50 (SK-UT): 4 µM
Maximum Inhibition % (SK-UT): 73%
GI50 (U-2 OS; Homo sapiens, U2OS): 6 µM
Maximum Inhibition % (U-2 OS): 96%
GI50 (MES-CA): 3 µM
Maximum Inhibition % (MES-CA): 100%
Maximum Inhibition % (SK-ES-1; Ewing sarcoma): 98%
GI50 (SK-ES-1; Homo sapiens, SK-ES1, Ewing sarcoma): 7 µM
GI50 (SK-LMS-1; Homo sapiens): 6 µM
Maximum Inhibition % (SK-LMS-1): 100%
Maximum Inhibition % (HeLa): 94%
GI50 (HeLa; Homo sapiens): 0.6 µM
Maximum Inhibition % (U973; Acute myelogenous leukemia): 73%
GI50 (U973; U-973, Acute myelogenous leukemia): 10 µM
GI50 (TC32; Homo sapiens, TC-32, Peripheral neuroepithelioma): 8 µM
Maximum Inhibition % (TC32; Peripheral neuroepithelioma): 88%
GI50 (ACHN; Homo sapiens): 0.979 µM
CC50 (ACHN; Homo sapiens, read-out: LC 50%): 6.3 µM
GI 100% (ACHN; Renal Cancer): 2.5 µM
Maximum Inhibition % (Calu-1): 100%
GI50 (Calu-1; Homo sapiens): 6 µM
Maximum Inhibition % (HT1080; Fibrosarcoma): 98%
GI50 (HT1080; Homo sapiens, HT-1080, Fibrosarcoma): 2 µM
Maximum Inhibition % [6]: 100%
GI50 ([6]; Homo sapiens): 6 µM
GI50 (K-562; Homo sapiens, K562): 3.39 µM
CC50 (K-562; Homo sapiens, K562, read-out: LC 50%): > 10 µM
GI 100% (K-562; K-562, Leukemia): >10 µM
GI50 (UO-31; Homo sapiens, UO-31): 0.373 µM
CC50 (UO-31; Homo sapiens, UO-31, read-out: LC 50%): > 10 µM
GI 100% (UO-31; UO-31, Renal Cancer): 1.63 µM
GI 100% (HL-60(TB) [7]): >10 µM
GI50 (HL-60(TB) [8]; HL-60): 2.26 µM
CC50 (HL-60(TB) [8]; HL-60, read-out: LC 50%): > 10 µM
GI50 (CAKI-1; CAKI-1): 2.15 µM
CC50 (CAKI-1; CAKI-1, read-out: LC 50%): > 10 µM
GI 100% (786-0; 786-0, Renal Cancer): 4.12 µM
GI50 (786-0; Homo sapiens, 786-0): 2.03 µM
CC50 (786-0; Homo sapiens, 786-0, read-out: LC 50%): 8.36 µM
GI50 (RXF393; Homo sapiens, RXF 393): 2.16 µM
CC50 (RXF393; Homo sapiens, RXF 393, read-out: LC 50%): > 10 µM
GI 100% (RXF393; RXF393, Renal Cancer): 7.2 µM

COC(=O)c1ccc([C@@H]2c3[nH]c4ccccc4c3C[C@@H](C(=O)OC)N2C(=O)CCl)cc1 [(1R,3S) Compound 27]
cell growth inhibition (in words) [3]: no appreciable growth inhibition
